US10981926B2 (Janssen Pharmaceutica NV, priority 2016, dated 2021)

Assays:
rGABA-gated Cl− channel = assay: GABA-Gated Cl Channel Antagonist Radioligand Binding Assay; parameters: species or system rat; settings: 10 μM single point, [35S]-TBPS, cerebral cortex membrane homogenates
Procedure, shortened: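 Values give percent inhibition of control specific […] (3 nM) binding at a single 10 μM compound concentration. Cerebral cortex membranes, 120 min, 22° C, phosphate buffer pH 7.4 with 500 mM NaCl; 20 μM picrotoxinin sets nonspecific binding; filtration and scintillation read-out.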

[1] = biological target: T1, wild-type Androgen Receptor (AR-wt) (Homo sapiens (Human), UniProt P10275); assay: LNCaP-AR-wt ANT reporter assay (antagonist mode); assay type: cell-based; settings: for IC50 / LNCaP-AR-wt ANT pIC50: antagonist mode, pIC50 = −Log10(IC50 in Molar); for IC50: read-out: LNCaP-AR-wt ANT pIC50 (converted); for Emax: maximum % inhibition of R1881 control response over the tested concentration range, read-out: LNCaP-AR-wt ANT MAX % Inh
T1 sequence (P10275 whole entry): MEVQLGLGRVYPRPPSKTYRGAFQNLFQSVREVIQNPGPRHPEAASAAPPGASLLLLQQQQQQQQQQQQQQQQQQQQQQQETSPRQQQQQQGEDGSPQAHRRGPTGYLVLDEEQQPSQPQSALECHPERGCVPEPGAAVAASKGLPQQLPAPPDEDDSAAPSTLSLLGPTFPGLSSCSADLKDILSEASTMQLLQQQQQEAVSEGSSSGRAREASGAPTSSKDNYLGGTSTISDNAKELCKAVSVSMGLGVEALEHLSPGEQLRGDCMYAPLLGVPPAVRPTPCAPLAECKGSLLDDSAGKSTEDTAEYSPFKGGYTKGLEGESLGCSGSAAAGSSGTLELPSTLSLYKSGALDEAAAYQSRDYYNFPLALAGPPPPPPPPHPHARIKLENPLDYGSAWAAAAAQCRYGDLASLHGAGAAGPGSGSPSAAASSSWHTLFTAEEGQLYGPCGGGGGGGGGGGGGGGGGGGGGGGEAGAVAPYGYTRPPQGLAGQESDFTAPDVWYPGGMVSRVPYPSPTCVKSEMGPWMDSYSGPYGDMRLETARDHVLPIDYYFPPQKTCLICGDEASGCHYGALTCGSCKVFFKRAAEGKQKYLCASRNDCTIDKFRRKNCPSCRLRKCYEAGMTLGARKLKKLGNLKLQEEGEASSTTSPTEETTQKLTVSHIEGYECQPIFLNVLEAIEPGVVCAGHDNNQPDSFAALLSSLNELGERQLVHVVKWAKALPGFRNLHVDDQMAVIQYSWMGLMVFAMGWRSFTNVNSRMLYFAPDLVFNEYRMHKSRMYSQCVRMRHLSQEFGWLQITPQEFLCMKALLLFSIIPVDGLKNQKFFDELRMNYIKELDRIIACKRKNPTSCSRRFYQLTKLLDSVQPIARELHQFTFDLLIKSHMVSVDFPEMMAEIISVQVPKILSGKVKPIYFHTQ

[2] = biological target: T1, wild-type Androgen Receptor (AR-wt); assay: LNCaP-AR-wt AG reporter assay (agonist mode); assay type: cell-based; settings: for EC50: agonist mode, pEC50 = −Log10(EC50 in Molar), read-out: LNCaP-AR-wt AG pEC50 (converted); for Emax: maximum % stimulation (agonist response) over the tested concentration range, read-out: LNCaP-AR-wt AG MAX % Stim
[3] = biological target: T2, F876L mutant Androgen Receptor (AR-F876L) (Homo sapiens (Human), UniProt P10275, F877L); assay: LNCaP-AR-F876L AG reporter assay (agonist mode); assay type: cell-based; settings: for EC50: agonist mode, pEC50 = −Log10(EC50 in Molar), read-out: LNCaP-AR-F876L AG pEC50 (converted); for Emax: maximum % stimulation (agonist response) over the tested concentration range, read-out: LNCaP-AR-F876L AG MAX % Stim
T2 sequence (P10275 whole entry F877L): as the sequence (P10275 whole entry) above, with F877L counted along it

[4] = biological target: T2, F876L mutant Androgen Receptor (AR-F876L); assay: LNCaP-AR-F876L ANT reporter assay (antagonist mode); assay type: cell-based; settings: for IC50 / LNCaP-AR-F876L ANT pIC50: antagonist mode, pIC50 = −Log10(IC50 in Molar); for IC50: read-out: LNCaP-AR-F876L ANT pIC50 (converted); for Emax: maximum % inhibition of R1881 control response over the tested concentration range, read-out: LNCaP-AR-F876L ANT MAX % Inh

| SMILES | rGABA-gated Cl− channel % inh @10 μM (rGABA-gated Cl− channel) [%] | IC50 [1] [nM] | Emax [1] [%] | EC50 [2] [nM] | Emax [2] [%] | EC50 [3] [nM] | Emax [3] [%] | IC50 [4] [nM] | Emax [4] [%] | LNCaP-AR-wt ANT pIC50 [1] | LNCaP-AR-F876L ANT pIC50 [4] |
| --- | --- | --- | --- | --- | --- | --- | --- | --- | --- | --- | --- |
| C[C@@H]1OC(c2ccc(N3C(=S)N(c4cnc(C#N)c(C(F)(F)F)c4)C(=O)C34CCC4)cc2)=C[C@H](O)[C@H]1O [Cpd 135, 5-(5-(4-((2S,3R,4S)-3,4-dihydroxy-2-methyl-3,4-dihydro-2H-pyran-6-yl)phenyl)-8-oxo-6-thioxo-5,7-diazaspiro[3.4]octan-7-yl)-3-(trifluoromethyl)picolinonitrile] | 99.6 | 389 | 104 | > 15100 | 0.1 | > 15100 | -0.1 | 155 | 102 | – | – |
| N#Cc1ncc(N2C(=O)C3(CCC3)N(c3ccc(OC4C5CCC4CNC5)cc3)C2=S)cc1C(F)(F)F (stereo not drawn) [Cpd 138, 5-[8-[4-(3-azabicyclo[3.2.1]octan-8-yloxy)phenyl]-5-oxo-7-thioxo-6,8-diazaspiro[3.4]octan-6-yl]-3-(trifluoromethyl)pyridine-2-carbonitrile] | 35.6 | 427 | 103 | > 15100 | -0.1 | > 15100 | 0.1 | 269 | 100 | – | – |
| Cl.N#Cc1ncc(N2C(=O)C3(CCC3)N(c3cnc(OC4CCNCC4)nc3)C2=S)cc1C(F)(F)F [Cpd 141, 5-{8-Oxo-5-[2-(piperidin-4-yloxy)-pyrimidin-5-yl]-6-thioxo-5,7-diaza-spiro[3.4]oct-7-yl}-3-trifluoromethyl-pyridine-2-carbonitrile] | 56.1 | – | 84.9 | > 15100 | -0.1 | > 15100 | 0 | – | 66.8 | 6.30 | 6.51 |
| CN1CCC(C(=O)c2ccc(N3C(=S)N(c4cnc(C#N)c(C(F)(F)F)c4)C(=O)C34CCC4)cc2)CC1 [Cpd 144, 5-[8-[4-(1-methylpiperidine-4-carbonyl)phenyl]-5-oxo-7-thioxo-6,8-diazaspiro[3.4]octan-6-yl]-3-(trifluoromethyl)pyridine-2-carbonitrile] | 42.3 | 1100 | 98.3 | > 15100 | 0.3 | > 15100 | 0.6 | 363 | 99.9 | – | – |
| N#Cc1ncc(N2C(=O)C3(CCC3)N(c3ccc(OC4CC5(CCN5)C4)cc3)C2=S)cc1C(F)(F)F (stereo not drawn) [Cpd 148, 5-[8-[4-(3-azaspiro[3.3]heptan-6-yloxy)phenyl]-5-oxo-7-thioxo-6,8-diazaspiro[3.4]octan-6-yl]-3-(trifluoromethyl)pyridine-2-carbonitrile] | 77.3 | 302 | 101 | > 15100 | 0.1 | > 15100 | 0.6 | 126 | 101 | – | – |
| CC(C)CCN1CCC(Oc2ccc(N3C(=S)N(c4cnc(C#N)c(Cl)c4)C(=O)C34CCC4)cn2)CC1 [Cpd 149, 3-chloro-5-[8-[6-[(1-isopentyl-4-piperidyl)oxy]-3-pyridyl]-5-oxo-7-thioxo-6,8-diazaspiro[3.4]octan-6-yl]pyridine-2-carbonitrile] | 35.4 | 81.3 | 99.8 | > 15100 | 0.5 | > 15100 | 1.5 | 105 | 97.9 | – | – |
| CN1CCC(Oc2ncc(N3C(=S)N(c4cnc(C#N)c(C(F)(F)F)c4)C(=O)C34CCC4)cn2)CC1 [Cpd 152, 5-[8-[2-[(1-methyl-4-piperidyl)oxy]pyrimidin-5-yl]-5-oxo-7-thioxo-6,8-diazaspiro[3.4]octan-6-yl]-3-(trifluoromethyl)pyridine-2-carbonitrile] | 15.1 | – | 101 | > 15100 | 0.2 | > 15100 | 0.1 | – | 99.9 | 6.38 | 6.37 |
| COc1cc(N2C(=O)C3(CCC3)N(c3ccc(OC4CCNCC4)cc3)C2=S)cnc1C#N [Cpd 154, 3-methoxy-5-[5-oxo-8-[4-(4-piperidyloxy)phenyl]-7-thioxo-6,8-diazaspiro[3.4]octan-6-yl]pyridine-2-carbonitrile] | −22.2 | 468 | 102 | > 15100 | -0.1 | > 15100 | -0.1 | 269 | 100 | – | – |

Continued, in another order:

| rGABA-gated Cl− channel % inh @10 μM (rGABA-gated Cl− channel) [%] | IC50 [1] [nM] | Emax [1] [%] | EC50 [2] [nM] | Emax [2] [%] | EC50 [3] [nM] | Emax [3] [%] | IC50 [4] [nM] | Emax [4] [%] | SMILES | LNCaP-AR-wt ANT pIC50 [1] | LNCaP-AR-F876L ANT pIC50 [4] |
| --- | --- | --- | --- | --- | --- | --- | --- | --- | --- | --- | --- |
| 97.4 | 589 | 101 | > 15100 | -0.1 | > 15100 | 0.3 | 708 | 97.9 | CC(=O)N1CCC(n2ncc3cc(N4C(=S)N(c5cnc(C#N)c(C(F)(F)F)c5)C(=O)C45CCC5)ccc32)CC1 [Cpd 131, 5-[8-[1-(1-acetyl-4-piperidyl)indazol-5-yl]-5-oxo-7-thioxo-6,8-diazaspiro[3.4]octan-6-yl]-3-(trifluoromethyl)pyridine-2-carbonitrile] | – | – |
| −8.5 | 1580 | 98.3 | > 15100 | 0.7 | > 15100 | 0.6 | 977 | 99 | Cn1cc(N2C(=S)N(c3cnc(C#N)c(C(F)(F)F)c3)C(=O)C23CCC3)ccc1=O [Cpd 133, 5-(5-(1-methyl-6-oxo-1,6-dihydropyridin-3-yl)-8-oxo-6-thioxo-5,7-diazaspiro[3.4]octan-7-yl)-3-(trifluoromethyl)picolinonitrile] | – | – |
| 77.9 | 1050 | 97.2 | > 15100 | 0.2 | > 15100 | 0.3 | 468 | 99.3 | N#Cc1ncc(N2C(=O)C3(CCC3)N(c3ccc4nn(CCO)cc4c3)C2=S)cc1C(F)(F)F [Cpd 161, 5-[8-[2-(2-hydroxyethyl)indazol-5-yl]-5-oxo-7-thioxo-6,8-diazaspiro[3.4]octan-6-yl]-3-(trifluoromethyl)pyridine-2-carbonitrile] | – | – |
| 48.5 | 324 | 96.4 | > 15100 | -0.1 | > 15100 | 0 | 158 | 99.2 | N#Cc1ncc(N2C(=O)C3(CCC3)N(c3ccc4nn(CCO)cc4c3)C2=S)cc1Cl [Cpd 162, 3-chloro-5-[8-[2-(2-hydroxyethyl)indazol-5-yl]-5-oxo-7-thioxo-6,8-diazaspiro[3.4]octan-6-yl]pyridine-2-carbonitrile] | – | – |
| 80.8 | 186 | 99.6 | > 15100 | 0.2 | > 15100 | 0.2 | 112 | 100 | COCCn1cc2cc(N3C(=S)N(c4cnc(C#N)c(Cl)c4)C(=O)C34CCC4)ccc2n1 [Cpd 169, 3-chloro-5-[8-[2-(2-methoxyethyl)indazol-5-yl]-5-oxo-7-thioxo-6,8-diazaspiro[3.4]octan-6-yl]pyridine-2-carbonitrile] | – | – |
| 94.9 | 339 | 99.2 | > 15100 | 0.2 | > 15100 | -0.1 | 174 | 100 | COCCn1cc2cc(N3C(=S)N(c4cnc(C#N)c(C(F)(F)F)c4)C(=O)C34CCC4)ccc2n1 [Cpd 172, 5-[8-[2-(2-methoxyethyl)indazol-5-yl]-5-oxo-7-thioxo-6,8-diazaspiro[3.4]octan-6-yl]-3-(trifluoromethyl)pyridine-2-carbonitrile] | – | – |
| 94.9 | 407 | 102 | > 15100 | 0 | > 15100 | 0.1 | 219 | 101 | Cn1cc2cc(N3C(=S)N(c4cnc(C#N)c(C(F)(F)F)c4)C(=O)C34CCC4)ccc2n1 [Cpd 174, 5-[8-(2-methylindazol-5-yl)-5-oxo-7-thioxo-6,8-diazaspiro[3.4]octan-6-yl]-3-(trifluoromethyl)pyridine-2-carbonitrile] | – | – |
